The target of this assay is IDO1 (Homo sapiens, UniProt P14902). Put plainly: IDO1 Cellular Assay in Hela Cells Stimulated with IFNγ. It is filed as cell-based. The arrangement: endogenous in cells; host or cells: HeLa cells stimulated with IFNγ. The note with it: IFNγ 100 ng/mL, 300 uM L-tryptophan, about 48 hours, fluorescence readout, read-out: IDO1 HELA Cell Assay, IC50. As to the method:
Biological Assays IDO1 Cellular Assay in Hela Cells Stimulated with IFNγ
Hela cells were cultured in complete Hela culture medium (90% EMEM, 10% heat-inactivated fetal bovine serum) and expanded to about 1×10^9 cells. The cells were then collected and frozen down at 1×10^7 cells/vial in 1 mL frozen medium (90% complete Hela culture medium, 10% DMSO)
Compounds to be tested were serially diluted in ten 3-fold steps in DMSO starting from 10 mM DMSO stocks in Echo low volume plate(s). Compound dilutions or DMSO alone were then dispensed from the dilution plate(s) into Greiner black 384-well assay plate(s) (catalog #781086, 50 nL/well) using an Echo 550 acoustic liquid handler (Labcyte).
Frozen Hela cells were thawed and transferred into Hela assay medium (99% complete Hela culture medium, 1% Pen/Strep) with 20 mL medium/vial of cells. The cells were spun down at 250 g in a table top centrifuge for 5 min and suspended in same volume of Hela assay medium. The cells were then counted and adjusted to a density of 2×10^5 cells/ml in Hela assay medium. Sterile L-tryptophan were added to the cells with final concentration of 300 uM L-tryptophan. A small aliquot (2 mL/plate) of Hela cells were set aside and were not treated with IFNγ, to serve as the Max-E control. The rest of Hela cells were added with sterile IFNγ (Cat #285-IF, R & D systems) with a final concentration of 100 ng/mL.
Hela cells with and without IFNγ were dispensed to the respective wells of 384-well assay plates containing the compounds. The plates were incubated for about 48 hours at a 37° C., 5% CO2 incubator. Afterwards, 12 μL of 0.5 M methyl isonipecotate in dimethyl sulfoxide were added into each well and the plates were sealed and incubated at 37° C. without CO2 overnight. The plates were centrifuged for 1 min at 200×g. The resulting fluorescence was measured in a Spectramax plate reader (Molecular Devices) with a 400 nm excitation filter and a 510 nm emission filter.
The fluorescence intensity of each well was corrected for the background observed in wells with non-IFNγ-treated cells and was expressed as a fraction of the intensity observed in wells of IFNγ-treated cells and DMSO only. Potencies were calculated by linear least squares fit to the four parameter logistic IC50 equation.
Compounds disclosed herein generally have IC50 of about 1 nM to about 1,000 nM, or more specifically, about 2 nM to about 800 nM, or more specifically, about 5 nM to about 600 nM, or still more specifically, about 10 nM to about 500 nM. Such a result is indicative of the intrinsic activity of the compounds in use as an inhibitor of an IDO enzyme.

Structures can show the parent of a compound that is named as a salt.

For 28 compounds, IC50 results are on record in patent US11352320B2 (Merck Sharp & Dohme Corp., priority 2018, dated 2022).

What is called IC50 is the concentration needed to halve the response being measured.

Chain of IDO1 (P14902 whole entry): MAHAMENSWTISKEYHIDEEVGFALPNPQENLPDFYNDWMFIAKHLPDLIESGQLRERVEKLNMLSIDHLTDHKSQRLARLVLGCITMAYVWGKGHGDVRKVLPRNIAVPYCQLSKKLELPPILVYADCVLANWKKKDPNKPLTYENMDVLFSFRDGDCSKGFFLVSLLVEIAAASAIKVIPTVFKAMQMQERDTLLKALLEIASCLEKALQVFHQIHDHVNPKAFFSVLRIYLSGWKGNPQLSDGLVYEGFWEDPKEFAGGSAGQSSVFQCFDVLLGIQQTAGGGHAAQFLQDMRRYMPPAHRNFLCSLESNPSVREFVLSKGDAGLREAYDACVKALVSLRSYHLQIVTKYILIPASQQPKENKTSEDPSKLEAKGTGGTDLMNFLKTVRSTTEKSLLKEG

On to `Cc1nccc(NC23CC(C(C)C(=O)Nc4ccc(Cl)cc4)(C2)C3)n1` (racemic) [Example 1, N-(4-chlorophenyl)-2-(3-((2-methylpyrimidin-4-yl)amino)bicyclo[1.1.1]pentan-1-yl)propanamide], for which the half-maximal inhibitory concentration (IC50) worked out at 33.3 nM.

`Cc1nccc(NC23CC([C@H](C)C(=O)Nc4ccc(Cl)cc4)(C2)C3)n1` (single isomer, unassigned) [Example 2, N-(4-chlorophenyl)-2-(3-((2-methylpyrimidin-4-yl)amino)bicyclo[1.1.1]pentan-1-yl)propanamide]: the IC50 was determined as 33.3 nM.

With `Cc1nccc(NC23CC([C@H](C)C(=O)Nc4ccc(Cl)cc4)(C2)C3)n1` (single isomer, unassigned) [Example 3, N-(4-chlorophenyl)-2-(3-((2-methylpyrimidin-4-yl)amino)bicyclo[1.1.1]pentan-1-yl)propanamide], the IC50 amounted to 428 nM.

As for `CC(C(=O)Nc1ccc(F)cc1)C12CC(Nc3ncnc4ccccc34)(C1)C2` (single isomer, unassigned) [Example 4, N-(4-fluorophenyl)-2-(3-(quinazolin-4-ylamino)bicyclo[1.1.1]pentan-1-yl)propanamide], the IC50 was determined as 388 nM.

`Cc1nc(NC23CC(C(C)C(=O)Nc4ccc(F)cc4)(C2)C3)c2cc(F)ccc2n1` (single isomer, unassigned) [Example 6]: the IC50 amounted to 590 nM.

Take `Cc1nc(NC23CC(C(C)C(=O)Nc4ccc(F)cc4)(C2)C3)c2cc(F)ccc2n1` (single isomer, unassigned) [Example 7]: the IC50 worked out at 17.7 nM.

`CC(C(=O)Nc1ccc(F)cc1)C12CC(Nc3nc(Cl)nc4c3CCC4)(C1)C2` (single isomer, unassigned) [Example 8, 2-(3-((2-chloro-6,7-dihydro-5H-cyclopenta[d]pyrimidin-4-yl)amino)bicyclo[1.1.1]pentan-1-yl)-N-(4-fluorophenyl)propanamide]: the IC50 is 330 nM.

Regarding `CC(C(=O)Nc1ccc(F)cc1)C12CC(Nc3nc(Cl)nc4c3CCC4)(C1)C2` (single isomer, unassigned) [Example 9, 2-(3-((2-chloro-6,7-dihydro-5H-cyclopenta[d]pyrimidin-4-yl)amino)bicyclo[1.1.1]pentan-1-yl)-N-(4-fluorophenyl)propanamide], the IC50 stood at 11.1 nM.

Turning to `CC(C(=O)Nc1ccc(F)cc1)C12CC(Nc3ncnc4ccc(F)cc34)(C1)C2` (single isomer, unassigned) [Example 10, N-(4-fluorophenyl)-2-(3-((6-fluoroquinazolin-4-yl)amino)bicyclo[1.1.1]pentan-1-yl)propanamide], the IC50 came out at 208 nM.

In the case of `CC(C(=O)Nc1ccc(F)cc1)C12CC(Nc3nccc4cccnc34)(C1)C2` (stereo not shown) [Example 12, N-(4-fluorophenyl)-2-{3-[(1,7-naphthyridin-8-yl)amino]bicyclo[1.1.1]pentan-1-yl}propanamide], the IC50 was 587 nM.

Turning to `CC(C(=O)Nc1ccc(F)cc1)C12CC(Nc3ncc(C(F)(F)F)cc3F)(C1)C2` (stereo not shown) [Example 13, N-(4-fluorophenyl)-2-(3-{[3-fluoro-5-(trifluoromethyl)pyridin-2-yl]amino}bicyclo[1.1.1]pentan-1-yl)propanamide], the IC50 came to 138 nM.

On to `Cc1nc(NC23CC(C(C)C(=O)Nc4ccc(F)cc4)(C2)C3)ccc1C(F)(F)F` (stereo not shown) [Example 14, N-(4-fluorophenyl)-2-(3-{[6-methyl-5-(trifluoromethyl)pyridin-2-yl]amino}bicyclo[1.1.1]pentan-1-yl)propanamide], for which the IC50 came to 52.4 nM.

Regarding `CC(C(=O)Nc1ccc(F)cc1)C12CC(Nc3ccc(C(F)(F)F)cn3)(C1)C2` (stereo not shown) [Example 15, N-(4-fluorophenyl)-2-(3-{[5-(trifluoromethyl)pyridin-2-yl]amino}bicyclo[1.1.1]pentan-1-yl)propanamide], the IC50 is 79 nM.

As for `CC(C(=O)Nc1ccc(F)cc1)C12CC(Nc3cc(C(F)(F)F)ncn3)(C1)C2` (stereo not shown) [Example 16, N-(4-fluorophenyl)-2-(3-{[6-(trifluoromethyl)pyrimidin-4-yl]amino}bicyclo[1.1.1]pentan-1-yl)propanamide], the IC50 was found to be 27.2 nM.

For the compound `CC(C(=O)Nc1ccc(F)cc1)C12CC(Nc3nccc(C(F)(F)F)c3C#N)(C1)C2` (stereo not shown) [Example 17, 2-(3-{[3-cyano-4-(trifluoromethyl)pyridin-2-yl]amino}bicyclo[1.1.1]pentan-1-yl)-N-(4-fluorophenyl]propanamide], the IC50 stood at 27.2 nM.

For `CC(C(=O)Nc1ccc(F)cc1)C12CC(Nc3cc(C(F)(F)F)ccn3)(C1)C2` (stereo not shown) [Example 18, N-(4-fluorophenyl)-2-(3-{[4-(trifluoromethyl)pyridin-2-yl]amino}bicyclo[1.1.1]pentan-1-yl)propanamide], the IC50 came to 173 nM.

As for `CC(C(=O)Nc1ccc(F)cc1)C12CC(Nc3c(C(F)(F)F)ccnc3F)(C1)C2` (stereo not shown) [Example 19, N-(4-fluorophenyl)-2-(3-{[2-fluoro-4-(trifluoromethyl)pyridin-3-yl]amino}bicyclo[1.1.1]pentan-1-yl)propanamide], the IC50 came to 11.9 nM.

Consider `CC(C(=O)Nc1ccc(F)cc1)C12CC(Nc3ncccc3C(F)(F)F)(C1)C2` (stereo not shown) [Example 20, N-(4-fluorophenyl)-2-(3-{[3-(trifluoromethyl)pyridin-2-yl]amino}bicyclo[1.1.1]pentan-1-yl)propanamide], for which the IC50 worked out at 543 nM.

Consider `CC(C(=O)Nc1ccc(F)cc1)C12CC(Nc3nccnc3C(F)(F)F)(C1)C2` (stereo not shown) [Example 21, N-(4-fluorophenyl)-2-(3-{[3-(trifluoromethyl)pyrazin-2-yl]amino}bicyclo[1.1.1]pentan-1-yl)propanamide], for which the IC50 was found to be 454 nM.

Consider `CC(C(=O)Nc1ccc(F)cc1)C12CC(Nc3ncc(C(F)(F)F)cc3F)(C1)C2` (stereo not shown) [Example 22, N-(4-fluorophenyl)-2-(3-{[3-fluoro-5-(trifluoromethyl)pyridin-2-yl]amino}bicyclo[1.1.1]pentan-1-yl)propanamide], for which the IC50 worked out at 166 nM.

Turning to `CC(C(=O)Nc1ccc(F)cc1)C12CC(Nc3nncc4ccccc34)(C1)C2` (stereo not shown) [Example 23, N-(4-fluorophenyl)-2-{3-[(phthalazin-1-yl)amino]bicyclo[1.1.1]pentan-1-yl}propanamide], the IC50 was determined as 183 nM.

In the case of `CC(C(=O)Nc1ccc(F)cc1)C12CC(Nc3ccnc(C(F)(F)F)c3)(C1)C2` (stereo not shown) [Example 24, N-(4-fluorophenyl)-2-(3-{[2-(trifluoromethyl)pyridin-4-yl]amino}bicyclo[1.1.1]pentan-1-yl)propanamide], the IC50 was 12.6 nM.

In the case of `CC(C(=O)Nc1ccc(F)cc1)C12CC(Nc3ccnc(C(F)(F)F)n3)(C1)C2` (stereo not shown) [Example 25, N-(4-fluorophenyl)-2-(3-{[2-(trifluoromethyl)pyrimidin-4-yl]amino}bicyclo[1.1.1]pentan-1-yl)propanamide], the IC50 came out at 94.1 nM.

In the case of `CC(C(=O)Nc1ccc(F)cc1)C12CC(Nc3cccc(C(F)(F)F)n3)(C1)C2` (stereo not shown) [Example 26, N-(4-fluorophenyl)-2-(3-{[6-(trifluoromethyl)pyridin-2-yl]amino}bicyclo[1.1.1]pentan-1-yl)propanamide], the half-inhibitory concentration (IC50) was 74.3 nM.

As to `C[C@H](C(=O)Nc1ccc(F)cc1)C12CC(Nc3ccnc(C(F)(F)F)c3)(C1)C2` [Example 27, (S)—N-(4-fluorophenyl)-2-(3-((2-(trifluoromethyl)pyridin-4-yl)amino)bicyclo[1.1.1]pentan-1-yl)propanamide], the IC50 came to 4.83 nM.

`C[C@H](C(=O)Nc1ccc(F)cc1)C12CC(NCc3cccc(Cl)c3)(C1)C2` [Example 28, (S)-2-(3-((3-chlorobenzyl)amino)bicyclo[1.1.1]pentan-1-yl)-N-(4-fluorophenyl)propanamide, TFA]: the IC50 turned out to be 25.7 nM.

Consider `C[C@H](C(=O)Nc1ccc(F)cc1)C12CC(NCc3cccc(C(F)(F)F)c3)(C1)C2` [Example 30, (S)-N-(4-fluorophenyl)-2-(3-((3-(trifluoromethyl)benzyl)amino)bicyclo[1.1.1]pentan-1-yl)propanamide, TFA], for which the IC50 was found to be 82.3 nM.

On to `C[C@H](C(=O)Nc1ccc(F)cc1)C12CC(N(C)Cc3cccc(C(F)(F)F)c3)(C1)C2` [Example 31, (S)-N-(4-fluorophenyl)-2-(3-(methyl(3-(trifluoromethyl)benzyl)amino)bicyclo[1.1.1]pentan-1-yl)propanamide, TFA], for which the IC50 is 15.1 nM.
